pKi: −log10 of the molar value.
Experiments:
[1] = system: A549 non-small cell lung cancer cell line; experiment: Proliferation of A549 (CellTiter Glo); type: cell-based; details: Homo sapiens, A549, 96 h, read-out: IC50 μM (A549 Cell Line)
Description: The diterpenoid compounds were tested in A549, a non-small cell lung cancer cell line harboring a K-Ras activating mutation. Briefly, A549 cells at a density of 1,000 cells/well were seeded in 96-well plates and incubated at 37° C. for 24 hours. A series of different concentrations of compound stocks (500×) were prepared by 3-fold serial dilution in DMSO. These compounds were further diluted in culture media and then added to cells so that the final DMSO concentration was not exceeding 0.25%. After 96 hours of incubation, 50 μL of CellTiter Glo reagent (Promega) was added to each well and luminescence was measured after 10 minutes using EnVision (PerkinElmer). Luminescence from cells treated with DMSO alone was set as Max and % of inhibition was calculated as follows: Inhibition %=(Max−Sample value)/Max×100. Data was analyzed using XL-fit software (ID Business Solutions Ltd.) and IC50, relative IC50, and % of top inhibition was calculated. Some of the compounds in this disclosure were very potent in blocking proliferation of A549 lung cancer cells at low nM range. In addition, potency of inhibiting A549 proliferation correlated well with its binding affinity to PKCs for this series of compounds. In other words, higher affinity binders had stronger inhibitory effects on A549 proliferation. This further support the notion that activation, rather than inhibition, of certain PKC isoforms is required to block proliferation of cancer cells, some of which may harbor K-Ras mutations. This is in sharp contrast to previous literature and common belief that inhibition of PKC is necessary to block cancer cell growth (Kang, 2014, New Journal of Science, 2014:1-36). Data presented here is in agreement with recent findings that many loss-of-function but not gain-of-function mutations of PKC isoforms have been identified in many human cancers (Antal et al., 2015, Cell, 160:489-502).

C1b domain of human PKCα = target: T1, C1b domain of human PKCα (Homo sapiens, UniProt P17252); experiment: biochemical; type: binding; details: Ki PKCα, 3H-PDBu competition
T1 construct: Genes encoding C1b domains of human PKCα, δ, ε, θ, and PKD1 (PKCμ) were synthesized; made in house; host or cells: E. coli BL21(DE3)
Description: (§1) Compounds described in this disclosure were tested for binding affinity to C1b domain of PKC isoforms. Compound binding affinity to C1b domain of PKC isoforms was derived from competitive binding assay using radioactive tracer ^3H-PDBu and recombinant GST-C1b or full-length of human PKC proteins based on modified procedures from Methods in Molecular Biology, vol.
(§2) Genes encoding C1b domains of human PKCα, δ, ε, θ, and PKD1 (PKCμ) were synthesized and inserted into pGEX-2TK or pGEX-4T1 vectors for expression and production of GST-C1b proteins in E. coli BL21(DE3) via IPTG induction. The target proteins were purified by glutathione sepharose 4B and followed by ion exchange chromatography if needed to achieve purity >70%. Aliquots of the purified proteins were stored at −80 degree for binding assay (storage buffer: 20 mM Tris pH 8.0, 200 mM NaCl, 10% glycerol, 1 mM DTT).
The plate was incubated at 37° C. on a shaker at 300 rpm for 10 minutes and then put on ice for 20 minutes. […] The bottom of the filter plate was sealed and 50 μL of MicroScint-20 (PerkinElmer) cocktail was added to each well. ^3H-PDBu trapped in each well was counted using PerkinElmer MicroBeta2 Reader. […] Kd is the binding affinity of each protein preparation to ^3H-PDBu, determined experimentally.

[2] = target: T2, C1b domain of human PKD1 (PKCμ) (Homo sapiens, UniProt Q15139); experiment: biochemical; type: binding
T2 construct: Genes encoding C1b domains of human PKCα, δ, ε, θ, and PKD1 (PKCμ) were synthesized; made in house; host or cells: E. coli BL21(DE3)
T2 sequence (Q15139 270-320 limits assumed): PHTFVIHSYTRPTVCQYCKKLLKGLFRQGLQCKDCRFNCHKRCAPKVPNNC
Description: as §1, §2
(§3) The plate was incubated at 37° C. on a shaker at 300 rpm for 10 minutes and then put on ice for 20 minutes. […] The bottom of the filter plate was sealed and 50 μL of MicroScint-20 (PerkinElmer) cocktail was added to each well. ^3H-PDBu trapped in each well was counted using PerkinElmer MicroBeta2 Reader. Data were analyzed using GraphPad Prism5 with the model “log(inhibitor) vs. response-variable slope” to fit the IC50, and then IC50 was transformed to Ki using Cheng-Prusoff equation: Ki=IC50/(1+added radio ligand/Kd). Kd is the binding affinity of each protein preparation to ^3H-PDBu, determined experimentally.

C1b domain of human PKCθ = target: T3, C1b domain of human PKCθ (Homo sapiens, UniProt Q04759); experiment: Competitive 3H-PDBu binding to C1b domain of PKCθ
T3 construct: Genes encoding C1b domains of human PKCα, δ, ε, θ, and PKD1 (PKCμ) were synthesized; made in house; host or cells: E. coli BL21(DE3)
T3 sequence (Q04759 231-281 limits assumed): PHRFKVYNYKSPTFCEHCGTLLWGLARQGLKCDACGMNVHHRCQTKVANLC
Description: as §1, §2, §3

C1b domain of human PKCε = target: T4, C1b domain of human PKCε (Homo sapiens, UniProt Q02156); experiment: Competitive 3H-PDBu binding to C1b domain of PKCε
T4 construct: Genes encoding C1b domains of human PKCα, δ, ε, θ, and PKD1 (PKCμ) were synthesized; made in house; host or cells: E. coli BL21(DE3)
Description: as §1, §2, §3

C1b domain of human PKCδ = target: T5, C1b domain of human PKCδ (Homo sapiens, UniProt Q05655); experiment: Competitive 3H-PDBu binding to C1b domain of PKCδ; details: Ki PKCδ, 3H-PDBu competition
T5 construct: Genes encoding C1b domains of human PKCα, δ, ε, θ, and PKD1 (PKCμ) were synthesized; made in house; host or cells: E. coli BL21(DE3)
Description: as §1, §2, §3

T4 sequence (Q02156 242-292 limits assumed): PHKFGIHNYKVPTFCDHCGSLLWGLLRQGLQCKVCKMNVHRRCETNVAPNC
T5 sequence (Q05655 230-280 limits assumed): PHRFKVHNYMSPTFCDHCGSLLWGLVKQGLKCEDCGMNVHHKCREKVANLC

SMILES	IC50 [1] [µM]	pKi (C1b domain of human PKCα)	pKi [2]	pKi (C1b domain of human PKCθ)	pKi (C1b domain of human PKCε)	pKi (C1b domain of human PKCδ)
CC1=C[C@H]2[C@@]3(O)[C@H](C)C[C@]4(O)[C@H]([C@@H]3C=C(CO)C[C@]2(O)C1=O)C4(C)C [Compound K101-C13OH]	> 30	< 5.10	5.22 to 5.40	5.40 to 5.70	5.40 to 5.70	5.10 to 5.22
CC1=C[C@H]2[C@@]3(O)[C@H](C)C[C@]4(OC(=O)C5CC6(CNC6)C5)[C@H]([C@@H]3C=C(CO)C[C@]2(O)C1=O)C4(C)C [Compound K101-C1305]	> 30	< 5.10	6.70 to 7.00	6.40 to 6.70	5.70 to 6.00	6.10 to 6.40
CC1=C[C@H]2[C@@]3(O)[C@H](C)C[C@]4(OC(=O)CC5CC6(CNC6)C5)[C@H]([C@@H]3C=C(CO)C[C@]2(O)C1=O)C4(C)C [Compound K101-C1306]	> 30	5.70 to 6.00	7.52 to 9.00	6.70 to 7.00	6.40 to 6.70	6.70 to 7.00
CC1=C[C@H]2[C@@]3(O)[C@H](C)C[C@]4(OC(=O)C5CC6(C5)CN(C(=O)OC(C)(C)C)C6)[C@H]([C@@H]3C=C(CO)C[C@]2(O)C1=O)C4(C)C [Compound K101-C1311]	0.1 to 0.2	6.10 to 6.40	> 8.30	7.52 to 9.00	7.22 to 7.52	7.52 to 9.00
CC1=C[C@H]2[C@@]3(O)[C@H](C)C[C@]4(OC(=O)CC5CC6(C5)CN(C(=O)OC(C)(C)C)C6)[C@H]([C@@H]3C=C(CO)C[C@]2(O)C1=O)C4(C)C [Compound K101-C1312]	0.03 to 0.06	6.70 to 7.00	> 8.30	7.52 to 9.00	7.52 to 9.00	8.00 to 8.30
CC1=C[C@H]2[C@@]3(O)[C@H](C)C[C@]4(OC(=O)/C=C/c5ccc(C(F)(F)F)cc5)[C@H]([C@@H]3C=C(CO)C[C@]2(O)C1=O)C4(C)C [Compound K101-C1313]	0.06 to 0.1	6.40 to 6.70	> 8.30	7.52 to 9.00	7.52 to 9.00	7.52 to 9.00
CC1=C[C@H]2[C@@]3(O)[C@H](C)C[C@]4(OC(=O)C[C@@H](N)CCc5ccccc5)[C@H]([C@@H]3C=C(CO)C[C@]2(O)C1=O)C4(C)C [Compound K101-C1350]	0.6 to 1	6.10 to 6.40	> 8.30	–	–	7.52 to 9.00
CC1=C[C@H]2[C@@]3(O)[C@H](C)C[C@]4(OC(=O)[C@H](N)CCCc5ccccc5)[C@H]([C@@H]3C=C(CO)C[C@]2(O)C1=O)C4(C)C [Compound K101-C1351]	0.2 to 0.6	5.70 to 6.00	7.52 to 9.00	–	–	7.22 to 7.52
CCCCCCCCCCCCCCCCCCC(CC(=O)O[C@@]12C[C@@H](C)[C@@]3(O)[C@@H](C=C(CO)C[C@]4(O)C(=O)C(C)=C[C@@H]34)[C@@H]1C2(C)C)C(=O)O (stereo partly shown) [Compound K101-C1352]	5 to 10	5.22 to 5.40	6.40 to 6.70	–	–	6.40 to 6.70
CC1=C[C@H]2[C@@]3(O)[C@H](C)C[C@]4(OC(=O)C(Cc5ccccc5)C(=O)O)[C@H]([C@@H]3C=C(CO)C[C@]2(O)C1=O)C4(C)C (stereo partly shown) [Compound K101-C1353]	1 to 2	< 5.10	5.22 to 5.40	–	–	6.10 to 6.40

Reference: patent US20220411362A1, “DITERPENOID COMPOUNDS THAT ACT ON PROTEIN KINASE C (PKC)” (K-Gen, Inc., priority 2019, published 2022)
